Experimental data taken from patent US8377944B2, “Thienopyrimidine derivatives” (ASKA Pharmaceutical Co., Ltd., priority 2005, dated 2013).
pIC50: −log10 of the molar value.

Key:
[1] = molecular target: T1, human recombinant PDE9 protein (Homo sapiens, UniProt O76083); assay: Measurement of PDE9-inhibiting activity; type: biochemical; conditions: human recombinant PDE9, [3H]-cGMP substrate; read-out: Inhibitory Activity (IC50 value) PDE 9
T1 construct: made in house; host or cells: COS-1 cells, transient transfection of pcDNA 3.1(+); supernatant of the cell homogenate
Source text: (1) Measurement of PDE9-Inhibiting Activity:
1) Preparation of Human Recombinant PDE9 Protein
Based on the base sequence of hsPDE9A1 registered with GenBank database (accession No.: AF048837), hsPDE9A1 fragment was amplified by polymerase chain reaction under the following conditions, using the following sequence (Amasham Pharmacia Biotech) as the primer and Human Prostate […] cDNA library (CLONTECH) as the template DNA, with Pfu Turbo DNA polymerase ([…]):
hPDE9-5A primer: […] [SEQ ID NO: 1]
hPDE9-3A primer: […] [SEQ ID NO: 2]
PCR condition: [95° C., 5 min]×1 cycle, [(95° C., 1 min), (58° C., 2 min), (72° C., 3 min)]×25 cycle, [72° C., 10 min]×1 cycle
Thus obtained hsPDE9A1 fragment was given a restricted enzymatic treatment with NheI and NotI, and thereafter inserted into pcDNA 3.1(+) expression vector (Invitrogen) to let it serve as a human PDE9 expression vector.
Human PDE9 expression vector-transformed Escherichia coli was mass incubated to produce a large amount of PDE9 expression vector, which was transiently transfected into COS-1 cells, with LIPOFECTAMINE 2000 Reagent (GIBCO). […]
To 150 μL of buffer B (70 mmol/L Tris-HCl, pH7.5; 16.7 mmol/L MgCl2, 33.3 nmol/L [^3H]-cGMP) solution containing [^3H]-cGMP (specific activity=244.2 GBq/mmol) at a concentration of 33.3 nmol/L, 50 μL of a solution of the compound to be evaluated (formed by dissolving the compound in DMSO and diluting it with distilled water to DMSO concentration of 5%) and 50 μL of the PDE9 protein solution as prepared in the above, as diluted with buffer C (40 mmol/L Tris-HCl, pH7.5, 15 mmol/L benzamidine, 15 mmol/L 2-mercaptoethanol, 1 μg/mL Pepstatin A, 1 μg/mL Leupeptin) by 1,500×, were added under cooling with ice. […] Thereafter [^3H]-guanosine was eluted with 3 mL of 3 mol/L aqueous ammonia and its radiation activity was measured with liquid scintillation counter.
PDE9 inhibition of the tested compound can be calculated by the following formula: […]
From the inhibition ratios at various concentration levels of each tested compound, its IC50 value against PDE9 was determined.

[2] = molecular target: T2, human recombinant PDE5 protein (Homo sapiens, UniProt O76074); assay: Measurement of PDE5-inhibiting activity; type: biochemical; conditions: human recombinant PDE5, [3H]-cGMP substrate; read-out: Inhibitory Activity (IC50 value) PDE 5
T2 construct: made in house; host or cells: COS-1 cells, transient transfection of pcDNA 3.1(+); supernatant of the cell homogenate
Source text: (2) Measurement of PDE5-Inhibiting Activity:
1) Preparation of Human Recombinant PDE5 Protein
Based on the base sequence of hsPDE5A1 registered with GenBank database (accession No.: NM_001083), hsPDE5A1 fragment was amplified by polymerase chain reaction under the following conditions, using the following sequence (SIGMA GENOSYS) as the primer and Human Prostate […] cDNA library (CLONTECH) as the template DNA, with KDD plus DNA polymerase (TOYOBO): […]
hPDE5-5′E primer: […] [SEQ ID NO: 3] […]
hPDE5-3′ primer: […] [SEQ ID NO: 4]
PCR condition: [94° C., 2 min]×1 cycle, [(94° C., 30 sec), (65° C., 30 sec), (68° C., 3 min)]×25 cycle, [68° C., 6 min]×1 cycle Thus obtained hsPDE5A1 fragment was given a restricted enzymatic treatment with XBaI and EcoRI, and thereafter inserted into pcDNA 3.1(+) expression vector (Invitrogen) to let it serve as a human PDE5 expression vector.
Human PDE5 expression vector-transformed Escherichia coli was mass incubated to produce a large amount of PDE5 expression vector, which was transiently transfected into COS-1 cells, with LIPOFECTAMINE 2000 Reagent (GIBCO). The cells were homogenized in ice-cooled buffer A and centrifuged at 4° C., 14,000×g for 10 minutes. The supernatant was isolated to provide human recombinant PDE5 protein solution.
2) Measurement of PDE5-Inhibiting Activity
By a method similar to the measurement of PDE9-inhibiting activity, PDE5-inhibiting activity of the test compounds was measured, their inhibition was calculated and IC50 value to PDE5 of each of the compounds was determined. The results are shown in the following Table A, concurrently with the compounds' IC50 values against PDE9.

T1 sequence (O76083 whole entry): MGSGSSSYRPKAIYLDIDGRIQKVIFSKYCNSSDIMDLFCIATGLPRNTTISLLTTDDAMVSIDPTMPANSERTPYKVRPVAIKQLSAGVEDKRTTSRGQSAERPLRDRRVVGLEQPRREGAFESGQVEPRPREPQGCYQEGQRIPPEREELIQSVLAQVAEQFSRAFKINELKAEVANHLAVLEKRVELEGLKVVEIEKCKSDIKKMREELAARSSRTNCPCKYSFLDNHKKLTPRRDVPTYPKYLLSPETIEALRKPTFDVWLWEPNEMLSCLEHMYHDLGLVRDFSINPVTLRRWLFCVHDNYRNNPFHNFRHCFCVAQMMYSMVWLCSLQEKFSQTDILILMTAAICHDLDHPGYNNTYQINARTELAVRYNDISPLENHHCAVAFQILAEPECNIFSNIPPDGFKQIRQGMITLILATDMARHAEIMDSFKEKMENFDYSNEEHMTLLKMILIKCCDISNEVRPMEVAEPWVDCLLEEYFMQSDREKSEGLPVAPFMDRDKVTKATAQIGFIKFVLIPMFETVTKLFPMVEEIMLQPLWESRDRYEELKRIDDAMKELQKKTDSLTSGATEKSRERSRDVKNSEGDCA

pIC50 [1]: 7.47
pIC50 [2]: 5.16
Structure (SMILES): Cc1c(C(=O)O)sc2nc(Cc3ccc(Cl)s3)[nH]c(=O)c12 [Example 3, 2-(5-Chlorothiophen-2-ylmethyl)-5-methyl-4-oxo-3,4-dihydrothieno[2,3-d]pyrimidine-6-carboxylic acid]
